Our source for the IC50 values is publication doi:10.1101/2020.12.13.873687v1 (biorxiv, 2020).

In this test the target is human amylin (islet amyloid polypeptide, IAPP) (Homo sapiens, UniProt P10997). Kind of test: thioflavin T fluorescence amyloid aggregation inhibition. Type of test: biochemical.
Chain of human amylin (islet amyloid polypeptide, IAPP) (P10997 34-70): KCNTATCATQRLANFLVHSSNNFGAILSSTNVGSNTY

As for `O=C(O[C@@H]1Cc2c(O)cc(O)cc2O[C@@H]1c1cc(O)c(O)c(O)c1)c1cc(O)c(O)c(O)c1` [Epigallocatechin gallate, reference compound], the IC50 (as a rule, the point on the concentration scale where inhibition reaches its midpoint) is about 1 µM.
The value for `O=C(O)/C=C/c1ccc(O)c(O)c1` [caffeic acid] was 7.2 µM; that for `O=C(/C=C/c1ccc(O)c(O)c1)O[C@H](Cc1ccc(O)c(O)c1)C(=O)O` [rosmarinic acid] was 0.2 to 0.3 µM.
`O=C(O)[C@H](O)Cc1ccc(O)c(O)c1` [salvianic acid A] showed an IC50 of 90 µM.
